The source of these data is paper PMC2874393, “Comparison of zwitterionic N-alkylaminomethanesulfonic acids to related compounds in the Good buffer series” (Beilstein Journal of Organic Chemistry, 2010).

For data set [1] the following is noted: cited from earlier work; for pKa (propyl analog) / pKa (ethyl analog): ref [1],[5],[7]; for pKa: in water, ref [4].
Data set [2] in a line: pKa of ammonium ion proton dissociation by aqueous solution titrimetry. It is filed as physicochemical. Here is the method: We then performed titrations to determine the pKa values of proton dissociation from the ammonium ion (1a and equivalent). The pKa values determined for these compounds, along with those of the analogous aminoethanesulfonate and aminopropanesulfonate buffer pKa values for comparison is presented in Table 1.
Acid dissociation constants for the ammonium ions were determined by aqueous solution titrimetry (min. 5 repetitions from low to high, then high to low pH) using standardized NaOH and HCl solutions.

For data set [3], the system named is E. coli strain HB101. The data set can be described thus: culture growth with buffer compounds, optical density at 600 nm. In kind it is cell-based. Conditions: for Final OD600: E. coli HB101, pH 7.2, 37 °C, 18 h, 3 trials; for culture growth support: all concentrations tested (10, 20, 50 mM); for toxicity or culture growth inhibition: higher concentrations of buffer. On the procedure: In order to assess the potential utility of these compounds as biological buffers, we conducted an initial experiment with different concentrations of the new compounds with E. coli strain HB101 at pH 7.2 and 37 °C for 18 h. Culture growth was estimated by optical density measurement at 600 nm, and the results are summarized in Table 2 (in which each value is the result of 3 separate trials, with an overall standard error for all final measurements of 0.025).

Data set [4] in a line: aqueous solubility (observation). Conditions: at low pH / pH ≤ pKa. It is filed as physicochemical. From the text: All of the compounds except 2 show evidence of a systematic decrease in pKa as the number of carbons between the amine and sulfonic acid functional groups decreases.
[5] abbreviates: ammonium ion, aqueous titration.
The mark [6] stands for this setting: 2nd (ammonium) dissociation constant value.

What is called pKa is the negative logarithm of the acid dissociation constant.

Each structure is given as a SMILES string. Like-named read-outs stand apart in the source and are kept apart here. Marks after values point to notes of the source that are not given here.

`O=S(=O)(O)CCCN1CCN(CCO)CC1` [EPPS, 4-(2-hydroxyethyl)-1-piperazinepropanesulfonic acid]: in data set [1], the “pKa (propyl analog)” value was 8.0.

As to `O=S(=O)(O)CCN1CCN(CCO)CC1` [HEPES], in data set [1], the “pKa (ethyl analog)” value is 7.5.

For `O=S(=O)(O)CN1CCN(CCO)CC1` [compound 2, N-(2-hydroxyethyl)piperazine-N′-methanesulfonic acid], the values for the pKa in data set [2] (0.25M solution at 20 °C) and in data set [2] (setting [5]) were 7.4 and 7.9, respectively. Besides, the “Final OD600” value in data set [3] (10 mM buffer) worked out at 1.16; in data set [3] (20 mM buffer), 1.08; in data set [3] (50 mM buffer) it was 0.66. In addition, the culture growth support result in data set [3] is “supported culture growth at all concentrations tested”. In addition, in data set [3], the “toxicity or culture growth inhibition” value is “possible toxicity or other culture growth inhibition”.

As for `O=S(=O)(O)CN1CCOCC1` [compound 1, N-Morpholinomethanesulfonic acid], the pKa in data set [2] (0.3 M solution at 20 °C) came to 3.8; in data set [2] (setting [5]), 3.9. The “Final OD600” value was 1.16 in data set [3] (10 mM buffer), 1.22 in data set [3] (20 mM buffer) and 1.18 in data set [3] (50 mM buffer). Moreover, the culture growth support result in data set [3] was “supported culture growth at all concentrations tested”.

As for `O=S(=O)(O)CCCN1CCN(CCCS(=O)(=O)O)CC1` [PIPPS, piperazine-N,N′-bis(3-propanesulfonic acid], the “pKa (propyl analog)” value in data set [1] (setting [6]) is on record as 8.0^b.

`NCS(=O)(=O)O` [aminomethanesulfonic acid]: in data set [1], the pKa was 5.75.

In the case of `O=S(=O)(O)CNC1CCCCC1` [compound 4, Cyclohexylaminomethanesulfonic acid], the results for the pKa in data set [2] (0.3 M solution at 20 °C) and in data set [2] (setting [5]) were 7.8 and about 7, respectively. In data set [4], the aqueous solubility entry is given as “limited solubility in aqueous solution”.

On to `O=S(=O)(O)CCNC1CCCCC1` [CHES, 2-(cyclohexylamino)ethanesulfonic acid], for which, in data set [1], the “pKa (ethyl analog)” value is 9.3.

On to `O=S(=O)(O)CN1CCN(CS(=O)(=O)O)CC1` [compound 3, Piperazine-N,N′-bis(methanesulfonic acid)], for which the pKa in data set [2] (0.3 M solution at 20 °C) amounted to 4.8; in data set [2] (2nd (ammonium) dissociation constant value, aqueous titration), 4.9. The entries for the “Final OD600” value in data set [3] (10 mM buffer), in data set [3] (20 mM buffer) and in data set [3] (50 mM buffer) were 1.23, 1.21 and 1.08, respectively. Also, the culture growth support result in data set [3] is reported as “supported culture growth at all concentrations tested”. Besides, the “toxicity or culture growth inhibition” value in data set [3] was “possible toxicity or other culture growth inhibition”. In addition, the aqueous solubility result in data set [4] was “does not demonstrate the limited aqueous solubility”.

As to `O=S(=O)(O)CCN1CCN(CCS(=O)(=O)O)CC1` [PIPES, reference compound], the aqueous solubility result in data set [4] is recorded as “limited aqueous solubility”. In addition, the “pKa (ethyl analog)” value in data set [1] (setting [6]) is listed as 6.8^b.

Regarding `NS(=O)(=O)O` [sulfamic acid], the pKa in data set [1] was 1.01.
